# Like-named read-outs stand apart in the source and are kept apart here.
# How the values were obtained:
# [1] = PK parameters in preclinical species; assay type: in vivo; conditions: Dog
# [2] = PK parameters in preclinical species; assay type: in vivo; conditions: Monkey
# [3] = PK parameters in preclinical species; assay type: in vivo; conditions: Rat
# SAOS-2 (p53-null) = experiment: Cell proliferation assay (YOPRO); assay type: cell-based; conditions: Homo sapiens
# Method: (§1) Figure 1. […] (^d) Selectivity is determined by the ratio of GI50 obtained using SAOS-2 (p53-null) and SJSA-1 (p53^WT and HDM2-amplified) osteosarcoma pair of cell lines. […] The data used to generate these plots, as well as cell line identity is available in Figure 1—source data 1. […] The blue color indicates the reverse profile. Brighter colors indicate which target classes pass the 0.25 FDR cut-off.
# (§2) All other cell lines were obtained from ATCC (American Type Culture Collection), DSMZ (Deutsche Sammlung von Mikroorganismen und Zellkulturen), and HSRRB (Health Science Research Resources Bank) and cultured in RPMI or Dulbecco's modified Eagle's medium plus 10% FBS (Invitrogen, Carlsbad, CA) at 37°C, 5% CO2.
# HCT-116 p53-null = experiment: Cell proliferation assay (YOPRO); assay type: cell-based; conditions: Homo sapiens, HCT116-p53-null
# Method: as §1, §2
# [4] = test system: SJSA-1 (p53WT and HDM2-amplified); experiment: Cell proliferation assay (YOPRO); assay type: cell-based; conditions: Homo sapiens, SJSA-1, read-out: SJSA-1 GI50
# Method: as §1, §2
# HCT-116 p53WT = experiment: Cell proliferation assay (YOPRO); assay type: cell-based; conditions: Homo sapiens, HCT-116, read-out: HCT-116 p53WT GI50
# Method: as §1, §2
# [5] = PK parameters in preclinical species; assay type: in vivo; conditions: Mouse
# [6] = single dose 0.1 mg/kg i.v. or 0.3 mg/kg p.o.
# [7] = in vivo, iv, 0.1 mg/kg i.v., dose-normalized to 1 mg/kg, read-out: AUCinf i.v.
# [8] = in vivo, iv, single dose 0.1 mg/kg i.v. or 0.3 mg/kg p.o.
# [9] = in vivo, iv, single dose 0.1 mg/kg i.v. or 0.3 mg/kg p.o., read-out: Vss
# [10] = in vivo, po, 0.3 mg/kg p.o., dose-normalized to 1 mg/kg
# [11] = in vivo, po, 0.3 mg/kg p.o., dose-normalized to 1 mg/kg, read-out: AUCinf p.o.
# [12] = single dose 1 mg/kg i.v. or 3 mg/kg p.o.
# [13] = in vivo, iv, 1 mg/kg i.v., dose-normalized to 1 mg/kg, read-out: AUCinf i.v.
# [14] = in vivo, iv, single dose 1 mg/kg i.v. or 3 mg/kg p.o.
# [15] = in vivo, iv, single dose 1 mg/kg i.v. or 3 mg/kg p.o., read-out: Vss
# [16] = in vivo, po, 3 mg/kg p.o., dose-normalized to 1 mg/kg
# [17] = in vivo, po, 3 mg/kg p.o., dose-normalized to 1 mg/kg, read-out: AUCinf p.o.
smiles,measurement,setting,value
COc1cc2c(cc1OC(C)C)[C@H](c1ccc(Cl)cc1)N(c1ccc(N(C)C[C@H]3CC[C@H](N4CCNC(=O)C4)CC3)cc1)C(=O)C2 [NVP-CFC218],Oral BA,"[1]; 0.1 mg/kg i.v., 0.3 mg/kg p.o.",71 ± 8 %F
same,t1/2app.,[1]; [6],14.4 ± 0.7 h
same,AUC(0-inf),[1]; [7],8.08 ± 1.68 µM·h
same,clearance,[1]; [8],3 ± 1 mL/min/kg
same,Vd,[1]; [9],3.6 ± 0.5 L/kg
same,Tmax,"[1]; in vivo, po, 0.3 mg/kg p.o.",3.3 ± 1.2 h
same,Cmax,[1]; [10],240 ± 43 nM
same,AUC(0-inf),[1]; [11],5.74 ± 0.68 µM·h
same,Oral BA,"[2]; 0.1 mg/kg i.v., 0.3 mg/kg p.o.",14 ± 2 %F
same,t1/2app.,[2]; [6],2.6 ± 0.3 h
same,AUC(0-inf),[2]; [7],2.37 ± 0.31 µM·h
same,clearance,[2]; [8],11 ± 2 mL/min/kg
same,Vd,[2]; [9],2.1 ± 0.3 L/kg
same,Tmax,"[2]; in vivo, po, 0.3 mg/kg p.o.",1 ± 0.1 h
same,Cmax,[2]; [10],77 ± 14 nM
same,AUC(0-inf),[2]; [11],0.34 ± 0.05 µM·h
same,Oral BA,"[3]; 1 mg/kg i.v., 3 mg/kg p.o.",49 ± 15 %F
same,t1/2app.,[3]; [12],9.3 ± 1.9 h
same,AUC(0-inf),[3]; [13],2.21 ± 0.21 µM·h
same,clearance,[3]; [14],12 ± 1 mL/min/kg
same,Vd,[3]; [15],8 ± 1.8 L/kg
same,Tmax,"[3]; in vivo, po, 3 mg/kg p.o.",4 ± 1.4 h
same,Cmax,[3]; [16],75 ± 23 nM
same,AUC(0-inf),[3]; [17],1.07 ± 0.34 µM·h
same,GI50,"SAOS-2 (p53-null); SAOS-2, mean ± SD, n ≥ 8",19.8 µM
same,IC50,SAOS-2 (p53-null); SAOS-2 p53 null cells remained insensitive,≥ 10 µM
same,IC50,HCT-116 p53-null; HCT-116 p53-null cells remained insensitive,≥ 10 µM
same,GI50,"HCT-116 p53-null; mean ± SD, n ≥ 8",15.9 µM
same,GI50,[4],0.353 ± 0.172 µM
same,GI50,HCT-116 p53WT,0.473 ± 0.1 µM
same,Oral BA,"[5]; 1 mg/kg i.v., 3 mg/kg p.o.",43 %F
same,t1/2app.,[5]; [12],3.6 h
same,AUC(0-inf),[5]; [13],2.8 µM·h
same,clearance,[5]; [14],9 mL/min/kg
same,Vd,[5]; [15],3.1 L/kg
same,Tmax,"[5]; in vivo, po, 3 mg/kg p.o.",2 h
same,Cmax,[5]; [16],94 nM
same,AUC(0-inf),[5]; [17],1.2 µM·h
